The record followed here is patent publication US9221835B2, “Spirocyclic derivatives as antiparasitic agents” (Zoetis Services LLC, priority 2012, dated 2015).

What all share (assay type): in vivo
Test [1] concerns Flea (Ctenocephalides felis). The test is described as follows: Flea (Ctenocephalides felis) Membrane Feed Assay-Adult. To be noted: adult fleas fed on treated citrated bovine blood for 24 hours, lowest dose to cause mortality ≧50%, half-log intervals, read-out: Minimum Effective Concentration (MEC). The protocol:
Flea (Ctenocephalides felis) Membrane Feed Assay-Adult
Compounds were dissolved in DMSO and aliquots were added to citrated bovine blood in membrane covered wells warmed to 37° C. Adult fleas were newly emerged (3-7 days) and unfed. Feeding wells containing approximately 10 adult fleas were placed onto the treated blood wells, and the fleas were allowed to feed on the treated blood for 24 hours. […] Each compound was tested at half-log intervals, and endpoint data was recorded as Minimum Effective Concentration in μM. MEC is a subjective visual assessment of organism viability, and is the lowest dose to cause mortality ≧50%.

Test [2] relates to Mosquito (Aedes aeqypti) larvae. The test is described as follows: Mosquito (Aedes aeqypti) Larval Assay. To be noted: first instar larvae, 25° C., 24 hours, lowest dose to inhibit motility ≧50% of untreated controls, half-log intervals, read-out: Minimum Effective Concentration (MEC). How it is done:
Mosquito (Aedes aeqypti) Larval Assay
Compounds were dissolved in DMSO and aliquots were spotted to empty wells. First instar mosquito larvae and maintenance media were added to the wells to obtain between 8 and 15 larvae per well in the appropriate final assay volume. Larvae were incubated in the treated media at 25° C. for 24 hours. Mosquito larvae motility was measured at 24 hours. Each compound was tested at half-log intervals, and endpoint results were recorded as Minimum Effective Concentration (MEC) in μM. MEC is an objective assessment of organism motility, and is the lowest dose to inhibit motility ≧50% of untreated controls.

For test [3], the system named is Soft Tick (Ornithidorus turicata). As to the kind of experiment: Soft Tick (Ornithidorus turicata) Blood Feed Assay. To be noted: nymph stage ticks fed on treated citrated bovine blood; paralysis and/or death observed at approximately 24, 48 and 72 hours. How it is done: Soft Tick (Ornithidorus turicata) Blood Feed Assay
Compounds of the present invention were dissolved in dimethylsulfoxide (DMSO) and aliquots added to citrated bovine blood in a membrane covered Petri dish. The Petri dish is placed on a warming tray. Approximately 5 nymph stage ticks are placed onto the membrane, covered, and left to feed. Fed ticks are removed and placed into a Petri dish with sand. […] Endpoint data was recorded as a 100% lethal dose (LD^100) in μg/mL.

Structures are written as SMILES. Structures can show the parent of a compound that is named as a salt.

`CS(=O)(=O)CC(=O)N1CC2(C1)OCc1cc(C3=NOC(c4cc(Cl)c(F)c(Cl)c4)(C(F)(F)F)O3)ccc12` (centres unmarked) [Example 27, 1-(5′-(5-(3,5-dichloro-4-fluorophenyl)-5-(trifluoromethyl)-1,4,2-dioxazol-3-yl)-3′H-spiro[azetidine-3,1′-isobenzofuran]-1-yl)-2-(methylsulfonyl)ethanone]: the minimal effective concentration is no less than 3 µM in test [1] and greater than 3 µM in test [2].

Take `CS(=O)(=O)CC(=O)N1CC2(C1)OCc1cc(C3=NNC(c4cc(Cl)cc(Cl)c4)(C(F)(F)F)C3)ccc12` (centres unmarked) [Example 20]: the minimal effective concentration in test [1] was no less than 3 µM; in test [2], 0.1 µM.

In the case of `CS(=O)(=O)CC(=O)N1CC2(C1)OCc1cc(C3=NOC(c4cc(Cl)cc(Cl)c4)(C(F)(F)F)O3)ccc12` (centres unmarked) [Example 29, 1-(5-(5-(3,5-dichlorophenyl)-5-(trifluoromethyl)-1,4,2-dioxazol-3-yl)-3′H-spiro[azetidine-3,1′-isobenzofuran]-1-yl)-2-(methylsulfonyl)ethanone], the minimal effective concentration in test [1] is no less than 3 µM; in test [2] it was greater than 3 µM.

Regarding `CS(=O)(=O)CC(=O)N1CC2(C1)OCc1cc(C3=NOC(c4cc(Cl)c(Cl)c(Cl)c4)(C(F)(F)F)O3)ccc12` (centres unmarked) [Example 32, 2-(methylsulfonyl)-1-(5′-(5-(3,4,5-trichlorophenyl)-5-(trifluoromethyl)-1,4,2-dioxazol-3-yl)-3′H-spiro[azetidine-3,1′-isobenzofuran]-1-yl)ethanone], the minimal effective concentration is no less than 3 µM in test [1] and greater than 3 µM in test [2].

Turning to `CC(C)C(=O)N1CC2(C1)OCc1cc(C3=NOC(c4cc(Cl)cc(Cl)c4)(C(F)(F)F)O3)ccc12` (centres unmarked) [Example 30, 1-(5-(5-(3,5-dichlorophenyl)-5-(trifluoromethyl)-1,4,2-dioxazol-3-yl)-3′H-spiro[azetidine-3,1′-isobenzofuran]-1-yl)-2-methylpropan-1-one], the minimal effective concentration in test [1] is no less than 3 µM. Moreover, the “100% lethal dose (LD100)” value in test [3] is 0.3 µg/mL.

Take `CC(C)C(=O)N1CC2(C1)OCc1cc(C3=COC(c4cc(Cl)c(Cl)c(Cl)c4)(C(F)(F)F)C3)ccc12` (centres unmarked) [Example 10]: the minimal effective concentration in test [2] was greater than 3 µM.

As for `CC(C)C(=O)N1CC2(C1)OCc1cc(C3=NNC(c4cc(Cl)c(F)c(Cl)c4)(C(F)(F)F)C3)ccc12` (centres unmarked) [Example 15, 1-(5′-(5-(3,5-dichloro-4-fluorophenyl)-5-(trifluoromethyl)-4,5-dihydro-1H-pyrazol-3-yl)-3′H-spiro[azetidine-3,1′-isobenzofuran]-1-yl)-2-methylpropan-1-one], in test [1], the minimal effective concentration was no less than 3 µM. Moreover, the “100% lethal dose (LD100)” value in test [3] came out at 0.03 µg/mL.

`CN1N=C(c2ccc3c(c2)COC32CN(C(=O)CS(C)(=O)=O)C2)CC1(c1cc(Cl)c(F)c(Cl)c1)C(F)(F)F` (centres unmarked) [Example 14, 1-(5′-(5-(3,5-dichloro-4-fluorophenyl)-1-methyl-5-(trifluoromethyl)-4,5-di hydro-1H-pyrazol-3-yl)-3′H-spiro[azetidine-3,1′-isobenzofuran]-1-yl)-2-(methylsulfonyl)ethanone]: the minimal effective concentration in test [1] is no less than 3 µM. For the same compound, in test [3], the “100% lethal dose (LD100)” value came out at 0.1 µg/mL.

For the compound `CS(=O)(=O)CC(=O)N1CC2(C1)OCc1cc(C3=COC(c4cc(Cl)c(F)c(Cl)c4)(C(F)(F)F)C3)ccc12` (centres unmarked) [Example 11, 5′-[5-(3,5-dichloro-4-fluorophenyl)-5-(trifluoromethyl)-4,5-dihydrofuran-3-yl]-1-[(methylsulfonyl)acetyl]-3′H-spiro[azetidine-3,1′-[2]benzofuran]], the minimal effective concentration in test [2] is greater than 3 µM.

Consider `CS(=O)(=O)CC(=O)N1CC2(C1)OCc1cc(C3=NCC(c4cc(Cl)c(F)c(Cl)c4)(C(F)(F)F)C3)ccc12` (centres unmarked) [Example 3, 1-(5′-(3-(3,5-dichloro-4-fluorophenyl)-3-(trifluoromethyl)-3,4-dihydro-2H-pyrrol-5-yl)-3′H-spiro[azetidine-3,1′-isobenzofuran]-1-yl)-2-(methylsulfonyl)ethanone], for which, in test [2], the minimal effective concentration was 0.03 µM.

In the case of `CC(C)C(=O)N1CC2(C1)OCc1cc(C3=NNC(c4cc(Cl)c(Cl)c(Cl)c4)(C(F)(F)F)C3)ccc12` (centres unmarked) [Example 17], in test [1], the minimal effective concentration was no less than 3 µM.

On to `CC(C)C(=O)N1CC2(C1)OCc1cc(N3CCC(c4cc(Cl)c(Cl)c(Cl)c4)(C(F)(F)F)C3)ccc12` (centres unmarked) [Example 25], for which the figures for the minimal effective concentration in test [1] and in test [2] were no less than 3 µM and greater than 3 µM, respectively.

With `CC(C)C(=O)N1CC2(C1)OCc1cc(C3=COC(c4cc(Cl)cc(Cl)c4)(C(F)(F)F)C3)ccc12` (centres unmarked) [Example 8, 5′-[5-(3,5-dichlorophenyl)-5-(trifluoromethyl)-4,5-dihydrofuran-3-yl]-1-isobutyryl-3′H-spiro[azetidine-3,1′-[2]benzofuran]], the minimal effective concentration in test [2] is greater than 3 µM.

As for `CC(C)C(=O)N1CC2(C1)OCc1cc(N3CCC(c4cc(Cl)cc(Cl)c4)(C(F)(F)F)C3)ccc12` (centres unmarked) [Example 24], the minimal effective concentration is no less than 3 µM in test [1] and greater than 3 µM in test [2].

As to `CS(=O)(=O)CC(=O)N1CC2(C1)OCc1cc(C3=NCC(c4cc(Cl)cc(Cl)c4)(C(F)(F)F)C3)ccc12` (centres unmarked) [Example 5, 1-(5′-(3-(3,5-dichlorophenyl)-3-(trifluoromethyl)-3,4-dihydro-2H-pyrrol-5-yl)-3′H-spiro[azetidine-3,1′-isobenzofuran]-1-yl)-2-(methylsulfonyl)ethanone], the minimal effective concentration was determined as 0.3 µM in test [1] and 0.03 µM in test [2].

Take `CC(C)C(=O)N1CC2(C1)OCc1cc(N3CCC(c4cc(Cl)c(F)c(Cl)c4)(C(F)(F)F)C3)ccc12` (centres unmarked) [Example 21]: in test [1], the minimal effective concentration was no less than 3 µM. The “100% lethal dose (LD100)” value in test [3] is 0.01 µg/mL.

With `CC(C)C(=O)N1CC2(C1)OCc1cc(C3=COC(c4cc(Cl)c(F)c(Cl)c4)(C(F)(F)F)C3)ccc12` (centres unmarked) [Example 12, 5′-[5-(3,5-dichloro-4-fluorophenyl)-5-(trifluoromethyl)-4,5-dihydrofuran-3-yl]-1-isobutyryl-3′H-spiro[azetidine-3,1′-[2]benzofuran]], the minimal effective concentration in test [2] is greater than 3 µM.

Consider `CC(C)C(=O)N1CC2(C1)OCc1cc(C3=NCC(c4cc(Cl)c(Cl)c(Cl)c4)(C(F)(F)F)C3)ccc12` (centres unmarked) [Example 2, 2-methyl-1-(5′-(3-(3,4,5-trichlorophenyl)-3-(trifluoromethyl)-3,4-dihydro-2H-pyrrol-5-yl)-3′H-spiro[azetidine-3,1′-isobenzofuran]-1-yl)propan-1-one], for which, in test [2], the minimal effective concentration is 0.1 µM.

Turning to `CS(=O)(=O)CC(=O)N1CC2(C1)OCc1cc(C3=NNC(c4cc(Cl)c(Cl)c(Cl)c4)(C(F)(F)F)C3)ccc12` (centres unmarked) [Example 18, 2-(methylsulfonyl)-1-(5′-(5-(3,4,5-trichlorophenyl)-5-(trifluoromethyl)-4,5-dihydro-1H-pyrazol-3-yl)-3′H-spiro[azetidine-3,1′-isobenzofuran]-1-yl)ethanone hydrochloride], the minimal effective concentration in test [1] was no less than 3 µM.

In the case of `CS(=O)(=O)CC(=O)N1CC2(C1)OCc1cc(C3=COC(c4cc(Cl)c(Cl)c(Cl)c4)(C(F)(F)F)C3)ccc12` (centres unmarked) [Example 9, 2-(methylsulfonyl)-1-(5′-(5-(3,4,5-trichlorophenyl)-5-(trifluoromethyl)-4,5-dihydrofuran-3-yl)-3′H-spiro[azetidine-3,1′-isobenzofuran]-1-yl)ethanone], the minimal effective concentration in test [2] was greater than 3 µM.

In the case of `CS(=O)(=O)CC(=O)N1CC2(C1)OCc1cc(C3=COC(c4cc(Cl)cc(Cl)c4)(C(F)(F)F)C3)ccc12` (centres unmarked) [Example 7, 5′-[5-(3,5-dichlorophenyl)-5-(trifluoromethyl)-4,5-dihydrofuran-3-yl]-1-[(methylsulfonyl)acetyl]-3′H-spiro[azetidine-3,1′-[2]benzofuran]], in test [2], the minimal effective concentration was greater than 3 µM.

Turning to `CC(C)C(=O)N1CC2(C1)OCc1cc(C3=NCC(c4cc(Cl)c(F)c(Cl)c4)(C(F)(F)F)C3)ccc12` (centres unmarked) [Example 4, 1-(5′-(3-(3,5-dichloro-4-fluorophenyl)-3-(trifluoromethyl)-3,4-dihydro-2H-pyrrol-5-yl)-3′H-spiro[azetidine-3,1′-isobenzofuran]-1-yl)-2-methyl propan-1-one], the minimal effective concentration in test [2] was determined as 0.1 µM.

As to `CC(C)C(=O)N1CC2(C1)OCc1cc(C3=NNC(c4cc(Cl)cc(Cl)c4)(C(F)(F)F)C3)ccc12` (centres unmarked) [Example 19, 1-(5′-(5-(3,5-dichlorophenyl)-5-(trifluoromethyl)-4,5-dihydro-1H-pyrazol-3-yl)-3′H-spiro[azetidine-3,1′-isobenzofuran]-1-yl)-2-methylpropan-1-one hydrochloride], the minimal effective concentration in test [1] is no less than 3 µM; in test [2], 0.1 µM.
